From the NIST ThermoML archive (doi:10.1016/j.jct.2019.03.007)

Assay: molar heat capacity at constant pressure
Details: 101.33 kPa, Crystal 1, DSC

O=[N+]([O-])[O-].O=[N+]([O-])[O-].[Ca+2] [calcium nitrate]
Details	molar heat capacity at constant pressure [J/K/mol]
361.78 K	152.56
362.18 K	160.28
362.78 K	152.75
363.18 K	160.44
363.78 K	152.95
364.18 K	160.63
364.78 K	153.15
365.18 K	160.81
365.78 K	153.35
366.18 K	161.02
366.78 K	153.54
367.18 K	161.17
367.78 K	153.74
368.18 K	161.33
368.78 K	153.94
369.18 K	161.53
369.78 K	154.14
370.18 K	161.7
370.78 K	154.34
371.18 K	161.95
371.78 K	154.54
372.18 K	162.09
372.78 K	154.75
373.18 K	162.29
373.78 K	154.94
374.18 K	162.35
374.78 K	155.12
375.18 K	162.54
375.78 K	155.3
376.18 K	162.75
376.78 K	155.47
377.18 K	162.97
377.78 K	155.64
378.18 K	163.18
378.78 K	155.81
379.18 K	163.4
379.78 K	155.97
380.18 K	163.62
380.78 K	156.14
381.18 K	163.84
381.78 K	156.31
382.18 K	164.05
382.78 K	156.48
383.18 K	164.32
383.78 K	156.65
384.18 K	164.57
384.78 K	156.82
385.18 K	164.8
385.78 K	156.99
386.18 K	164.98
386.78 K	157.16
387.18 K	165.18
387.78 K	157.33
388.18 K	165.31
388.78 K	157.5
389.18 K	165.47
389.78 K	157.67
390.18 K	165.67
390.78 K	157.83
391.18 K	165.88
391.78 K	158
392.18 K	166.07
392.78 K	158.17
393.18 K	166.27
393.78 K	158.34
394.18 K	166.46
394.78 K	158.51
395.18 K	166.6
395.78 K	158.68
396.18 K	166.74
396.78 K	158.86
397.18 K	166.86
397.78 K	159.03
398.18 K	167.03
398.78 K	159.2
399.18 K	167.15
399.78 K	159.38
400.18 K	167.33
400.78 K	159.54
401.18 K	167.43
401.78 K	159.71
402.18 K	167.63
402.78 K	159.87
403 K	160.69
403.18 K	167.77
403.78 K	160.04
404 K	160.78
404.18 K	167.98
404.78 K	160.23
405 K	161.04
405.18 K	168.21
405.78 K	160.41
406 K	160.25
406.18 K	168.41
406.78 K	160.58
407 K	160.32
407.18 K	168.63
407.78 K	160.76
408 K	160.3
408.18 K	168.88
408.78 K	160.93
409 K	160.49
409.18 K	169.09
409.78 K	161.1
410 K	161.08
410.18 K	169.35
410.78 K	161.27
411 K	160.76
411.18 K	169.49
411.78 K	161.44
412 K	160.92
412.18 K	169.72
412.78 K	161.61
413 K	161.04
413.18 K	169.84
413.78 K	161.77
414 K	161.26
414.18 K	170.06
414.78 K	161.94
415 K	161.41
415.18 K	170.21
415.78 K	162.11
416 K	161.42
416.18 K	170.45
416.78 K	162.27
417 K	161.52
417.18 K	170.58
417.78 K	162.43
418 K	161.73
418.18 K	170.76
418.78 K	162.59
419 K	162.11
419.18 K	170.93
419.78 K	162.75
420 K	162.15
420.18 K	171.07
420.78 K	162.91
421 K	162.33
421.18 K	171.17
421.78 K	163.06
422 K	162.71
422.18 K	171.32
422.78 K	163.22
423 K	162.96
423.18 K	171.45
423.78 K	163.38
424 K	163.14
424.18 K	171.55
424.78 K	163.54
425 K	163.33
425.18 K	171.73
425.78 K	163.69
426 K	163.37
426.18 K	171.87
426.78 K	163.85
427 K	163.76
427.18 K	172.05
427.78 K	164.01
428 K	163.77
428.18 K	172.26
428.78 K	164.17
429 K	163.7
429.18 K	172.5
429.78 K	164.33
430 K	163.8
430.18 K	172.74
430.78 K	164.49
431 K	163.76
431.18 K	173.01
431.78 K	164.65
432 K	163.92
432.18 K	173.21
432.78 K	164.81
433 K	164.38
433.18 K	173.43
433.78 K	164.96
434 K	164.69
434.18 K	173.63
434.78 K	165.13
435 K	164.65
435.18 K	173.82
435.78 K	165.29
436 K	164.7
436.18 K	174.04
436.78 K	165.45
437 K	164.8
437.18 K	174.21
437.78 K	165.61
438 K	165.07
438.18 K	174.35
438.78 K	165.77
439 K	165.44
439.18 K	174.62
439.78 K	165.93
440 K	165.84
440.18 K	174.82
440.78 K	166.09
441 K	165.74
441.18 K	175.02
441.78 K	166.26
442 K	165.94
442.18 K	175.16
442.78 K	166.42
443 K	166.4
443.18 K	175.33
443.78 K	166.58
444 K	166.4
444.18 K	175.47
444.78 K	166.75
445 K	166.55
445.18 K	175.65
445.78 K	166.92
446 K	166.46
446.18 K	175.77
446.78 K	167.08
447 K	166.39
447.18 K	175.94
447.78 K	167.25
448 K	166.47
448.18 K	176.08
448.78 K	167.41
449 K	166.51
449.18 K	176.2
449.78 K	167.57
450 K	166.69
450.18 K	176.36
450.78 K	167.73
451 K	166.81
451.18 K	176.52
451.78 K	167.88
452 K	166.99
452.18 K	176.72
452.78 K	168.04
453 K	167.12
453.18 K	176.94
453.78 K	168.19
454 K	167.19
454.18 K	177.19
454.78 K	168.34
455 K	167.39
455.18 K	177.36
455.78 K	168.49
456 K	167.61
456.18 K	177.51
456.78 K	168.64
457 K	167.67
457.18 K	177.68
457.78 K	168.79
458 K	167.76
458.18 K	177.88
458.78 K	168.94
459 K	167.66
459.18 K	178.01
459.78 K	169.09
460 K	167.65
460.18 K	178.19
